Data from patent US20230219904A1 (SYNGENTA CROP PROTECTION AG, priority 2020, published 2023).

Legend:
Assay type in all cases: in vivo
Details in all cases: evaluated after 13 days
[1] = tested on: Abutilon theophrasti (ABUTH); test: Pre-emergence herbicidal glasshouse test (Table B1)
Method in brief: (§1)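 Application rate was 500 g/h unless otherwise indicated, as a spray prepared from acetone/water (50:50) containing 0.5% Tween 20. Treatment followed one day (pre-emergence) or 8 days (post-emergence) of glasshouse growth, and percentage plant damage was assessed 13 days later on a 1–5 scale.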

[2] = tested on: Amaranthus retoflexus (AMARE); test: as above
Method in brief: as §1

[3] = tested on: Echinochloa crus-galh (ECHCG); test: as above
Method in brief: as §1

[4] = tested on: Ipomoea hederacea (IPOHE); test: as above
Method in brief: as §1

[5] = tested on: Setaria faberi (SETFA); test: as above
Method in brief: as §1

[6] = tested on: Abutilon theophrasti (ABUTH); test: Post-emergence herbicidal glasshouse test (Table B1)
Method in brief: as §1

[7] = tested on: Amaranthus retoflexus (AMARE); test: as above
Method in brief: as §1

[8] = tested on: Echinochloa crus-galh (ECHCG); test: as above
Method in brief: as §1

[9] = tested on: Ipomoea hederacea (IPOHE); test: as above
Method in brief: as §1

[10] = tested on: Setaria faberi (SETFA); test: as above
Method in brief: as §1

Structure (SMILES)	PRE Application ABUTH, percentage damage on five-point scale ([1]; applied at 125 g/ha)	PRE Application AMARE, percentage damage on five-point scale ([2]; applied at 125 g/ha)	PRE Application ECHCG, percentage damage on five-point scale ([3]; applied at 125 g/ha)	PRE Application IPOHE, percentage damage on five-point scale ([4]; applied at 125 g/ha)	PRE Application SETFA, percentage damage on five-point scale ([5]; applied at 125 g/ha)	POST Application ABUTH, percentage damage on five-point scale ([6]; applied at 125 g/ha)	POST Application AMARE, percentage damage on five-point scale ([7]; applied at 125 g/ha)	POST Application ECHCG, percentage damage on five-point scale ([8]; applied at 125 g/ha)	POST Application IPOHE, percentage damage on five-point scale ([9]; applied at 125 g/ha)	POST Application SETFA, percentage damage on five-point scale ([10]; applied at 125 g/ha)	PRE Application ABUTH, percentage damage on five-point scale ([1]; applied at 500 g/h)	PRE Application AMARE, percentage damage on five-point scale ([2]; applied at 500 g/h)	PRE Application ECHCG, percentage damage on five-point scale ([3]; applied at 500 g/h)	PRE Application IPOHE, percentage damage on five-point scale ([4]; applied)	PRE Application SETFA, percentage damage on five-point scale ([5]; applied at 500 g/h)	POST Application ABUTH, percentage damage on five-point scale ([6]; applied at 500 g/h)	POST Application AMARE, percentage damage on five-point scale ([7]; applied at 500 g/h)	POST Application ECHCG, percentage damage on five-point scale ([8]; applied at 500 g/h)	POST Application IPOHE, percentage damage on five-point scale ([9]; applied at 500 g/h)	POST Application SETFA, percentage damage on five-point scale ([10]; applied at 500 g/h)
CCn1nnnc1NC(=O)c1ccc(OC(F)(F)F)c(NC(=O)C(F)F)c1Cl [Compound 1.122]	3 (3=40-59%)	5 (5=80-100%)	4 (4=60-79%)	1 (1=0-19%)	3 (3=40-59%)	4 (4=60-79%)	5 (5=80-100%)	4 (4=60-79%)	2 (2=20-39%)	3 (3=40-59%)	–	–	–	–	–	–	–	–	–	–
CCn1nnnc1NC(=O)c1ccc(OC(F)(F)F)c(NC(=O)c2ccccc2OC)c1Cl [Compound 1.123]	3 (3=40-59%)	3 (3=40-59%)	3 (3=40-59%)	2 (2=20-39%)	4 (4=60-79%)	4 (4=60-79%)	4 (4=60-79%)	4 (4=60-79%)	5 (5=80-100%)	4 (4=60-79%)	–	–	–	–	–	–	–	–	–	–
CC(C)C(=O)Nc1c(OC(F)(F)F)ccc(C(=O)Nc2nnnn2C)c1Cl [Compound 1.124]	–	–	–	–	–	–	–	–	–	–	4 (4=60-79%)	5 (5=80-100%)	5 (5=80-100%)	1 (1=0-19%)	4 (4=60-79%)	5 (5=80-100%)	5 (5=80-100%)	5 (5=80-100%)	5 (5=80-100%)	5 (5=80-100%)
COC(C)(C)C(=O)Nc1c(OC(F)(F)F)ccc(C(=O)Nc2nnnn2C)c1Cl [Compound 1.125]	–	–	–	–	–	–	–	–	–	–	5 (5=80-100%)	5 (5=80-100%)	5 (5=80-100%)	4 (4=60-79%)	1 (1=0-19%)	5 (5=80-100%)	5 (5=80-100%)	5 (5=80-100%)	5 (5=80-100%)	5 (5=80-100%)
CCC(=O)Nc1c(OC(F)F)ccc(C(=O)Nc2nnnn2C)c1C [Compound 1.126]	5 (5=80-100%)	5 (5=80-100%)	5 (5=80-100%)	3 (3=40-59%)	2 (2=20-39%)	5 (5=80-100%)	5 (5=80-100%)	5 (5=80-100%)	4 (4=60-79%)	5 (5=80-100%)	–	–	–	–	–	–	–	–	–	–
CCn1nnnc1NC(=O)c1ccc(OC(F)(F)F)c(NC(=O)C(C)F)c1Cl (stereo not drawn) [Compound 1.127]	–	–	–	–	–	–	–	–	–	–	5 (5=80-100%)	5 (5=80-100%)	5 (5=80-100%)	2 (2=20-39%)	3 (3=40-59%)	5 (5=80-100%)	5 (5=80-100%)	5 (5=80-100%)	5 (5=80-100%)	5 (5=80-100%)
